Data published in PMC12825302, “Structural plasticity enables broad cAn binding and dual activation of CRISPR-associated ribonuclease Cdn1” (Nucleic Acids Research, 2026).

Experiments:
Cdn1 [1] = biological target: T1, Cdn1 (Psychrobacter lutiphocae, UniProt A0ACN4YG66); experiment: ITC; type: binding
T1 construct: codon-optimized gene in pET-28a(+), E. coli BL21(DE3), Ni-NTA and SEC; homodimer (SEC-MALS); N-terminal CARF and C-terminal PD-(D/E)xK nuclease domain
T1 sequence (A0ACN4YG66 1-399): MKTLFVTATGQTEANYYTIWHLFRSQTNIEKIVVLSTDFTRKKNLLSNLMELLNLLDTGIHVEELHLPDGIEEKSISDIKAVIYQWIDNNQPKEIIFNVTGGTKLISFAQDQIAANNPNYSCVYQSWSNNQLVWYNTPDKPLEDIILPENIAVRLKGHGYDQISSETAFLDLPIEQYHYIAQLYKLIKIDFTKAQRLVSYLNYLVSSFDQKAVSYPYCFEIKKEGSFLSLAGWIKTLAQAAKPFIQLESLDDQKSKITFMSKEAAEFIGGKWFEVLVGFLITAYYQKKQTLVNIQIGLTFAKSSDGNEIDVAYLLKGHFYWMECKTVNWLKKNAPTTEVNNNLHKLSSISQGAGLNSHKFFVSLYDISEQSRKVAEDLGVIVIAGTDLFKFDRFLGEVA

Cdn1 [2] = biological target: T1, Cdn1; experiment: FAM-labeled ssRNA (RNA1) cleavage, urea-PAGE; type: biochemical
[3] = biological target: Cdn1 (CRISPR-associated dual-cOAs-activated ribonuclease 1) (Psychrobacter lutiphocae); experiment: SEC; size-exclusion chromatography during purification (HiLoad 16/600 Superdex 200 prep grade); no cyclic oligoadenylate added
[4] = biological target: Cdn1 (CRISPR-associated dual-cOAs-activated ribonuclease 1) (Psychrobacter lutiphocae); experiment: SEC-MALS; 10 mg/ml Cdn1 in 50 mM NaH2PO4/Na2HPO4, pH 7.4, 300 mM NaCl; TSKgel G3000SWXL, 0.5 ml/min, 8°C; no cyclic oligoadenylate added

`Nc1ncnc2c1ncn2[C@@H]1O[C@@H]2COP(=O)(O)O[C@H]3[C@@H](O)[C@H](n4cnc5c(N)ncnc54)O[C@@H]3COP(=O)(O)O[C@H]3[C@@H](O)[C@H](n4cnc5c(N)ncnc54)O[C@@H]3COP(=O)(O)O[C@H]3[C@@H](O)[C@H](n4cnc5c(N)ncnc54)O[C@@H]3COP(=O)(O)O[C@H]3[C@@H](O)[C@H](n4cnc5c(N)ncnc54)O[C@@H]3COP(=O)(O)O[C@H]3[C@@H](O)[C@H](n4cnc5c(N)ncnc54)O[C@@H]3COP(=O)(O)O[C@H]2[C@H]1O` [cA6] was tested, and the Kd (Cdn1 [1]) was 740 ± 205 nM and the EC50 (Cdn1 [2]) was 670 ± 98.8 nM.
With `Nc1ncnc2c1ncn2[C@@H]1O[C@@H]2COP(=O)(O)O[C@H]3[C@@H](O)[C@H](n4cnc5c(N)ncnc54)O[C@@H]3COP(=O)(O)O[C@H]3[C@@H](O)[C@H](n4cnc5c(N)ncnc54)O[C@@H]3COP(=O)(O)O[C@H]2[C@H]1O` [cA3] the Kd (Cdn1 [1]) was 23 ± 8.7 nM.
In the case of `Nc1ncnc2c1ncn2[C@@H]1O[C@@H]2COP(=O)(O)O[C@H]3[C@@H](O)[C@H](n4cnc5c(N)ncnc54)O[C@@H]3COP(=O)(O)O[C@H]3[C@@H](O)[C@H](n4cnc5c(N)ncnc54)O[C@@H]3COP(=O)(O)O[C@H]3[C@@H](O)[C@H](n4cnc5c(N)ncnc54)O[C@@H]3COP(=O)(O)O[C@H]2[C@H]1O` [cA4], the Kd (Cdn1 [1]) is reported as 54.6 ± 25.1 nM and the EC50 (Cdn1 [2]) is reported as 2.17 ± 0.68 nM.
Compound “Cdn1 (CRISPR-associated dual-cOAs-activated ribonuclease 1) (enzyme)” has a stoichiometry N [3] of 2 and a stoichiometry N [4] of 2.
